The record followed here is US11541107B2, “Peptides and T cells for use in immunotherapeutic treatment of various cancers” (Immatics Biotechnologies GmbH, priority 2015, dated 2023).

One assay concerns CD8+ T cells. As to the kind of experiment: In vitro T-cell priming assay (aAPCs loaded with peptide/MHC and anti-CD28, pMHC multimer readout; HLA-A*02 and HLA-A*24). Type of assay: cell-based, human. Particulars: in vitro immunogenicity of HLA class I peptides; for Wells positive [%]: peptide-specific T cells by pMHC multimer staining. An excerpt: In order to obtain information regarding the immunogenicity of the TUMAPs of the present invention, the inventors performed investigations using an in vitro T-cell priming assay based on repeated stimulations of CD8+ T cells with artificial antigen presenting cells (aAPCs) loaded with peptide/MHC complexes and anti-CD28 antibody.
In order to perform in vitro stimulations by artificial antigen presenting cells loaded with peptide-MHC complex (pMHC) and anti-CD28 antibody, the inventors first isolated CD8+ T cells from fresh HLA-A*02 leukapheresis products via positive selection using CD8 microbeads (Miltenyi Biotec, Bergisch-Gladbach, Germany) of healthy donors obtained from the University clinics Mannheim, Germany, after informed consent.
PBMCs and isolated CD8+ lymphocytes were incubated in T-cell medium (TCM) until use consisting of RPMI-Glutamax (Invitrogen, Karlsruhe, Germany) supplemented with 10% heat inactivated human AB serum (PAN-Biotech, Aidenbach, Germany), 100 U/ml Penicillin/100 μg/ml Streptomycin (Cambrex, Cologne, Germany), 1 mM sodium pyruvate (CC Pro, Oberdorla, Germany), 20 μg/ml Gentamycin (Cambrex). 2.5 ng/ml IL-7 (PromoCell, Heidelberg, Germany) and 10 U/ml IL-2 (Novartis Pharma, Nürnberg, Germany) were also added to the TCM at this step.
Generation of pMHC/anti-CD28 coated beads, T-cell stimulations and readout was performed in a highly defined in vitro system using four different pMHC molecules per stimulation condition and 8 different pMHC molecules per readout condition.
The purified co-stimulatory mouse IgG2a anti human CD28 Ab 9.3 (Jung et al., 1987) was chemically biotinylated using Sulfo-N-hydroxysuccinimidobiotin as recommended by the manufacturer (Perbio, Bonn, Germany). Beads used were 5.6 μm diameter streptavidin coated polystyrene particles (Bangs Laboratories, Illinois, USA).
pMHC used for positive and negative control stimulations were A*0201/MLA-001 (peptide […] (SEQ ID NO. 418) from modified Melan-A/MART-1) and A*0201/DDX5-001 ([…] from DDX5, SEQ ID NO. 419), respectively.
800.000 beads/200 μl were coated in 96-well plates in the presence of 4×12.5 ng different biotin-pMHC, washed and 600 ng biotin anti-CD28 were added subsequently in a volume of 200 μl. Stimulations were initiated in 96-well plates by co-incubating 1×10^6 CD8+ T cells with 2×10^5 washed coated beads in 200 μl TCM supplemented with 5 ng/ml IL-12 (PromoCell) for 3 days at 37° C. Half of the medium was then exchanged by fresh TCM supplemented with 80 U/ml IL-2 and incubating was continued for 4 days at 37° C. This stimulation cycle was performed for a total of three times. For the pMHC multimer readout using 8 different pMHC molecules per condition, a two-dimensional combinatorial coding approach was used as previously described (Andersen et al., 2012) with minor modifications encompassing coupling to 5 different fluorochromes. Finally, multimeric analyses were performed by staining the cells with Live/dead near IR dye (Invitrogen, Karlsruhe, Germany), CD8-FITC antibody clone SK1 (BD, Heidelberg, Germany) and fluorescent pMHC multimers. For analysis, a BD LSRII SORP cytometer equipped with appropriate lasers and filters was used. Peptide specific cells were calculated as percentage of total CD8+ cells. Evaluation of multimeric analysis was done using the FlowJo software (Tree Star, Oregon, USA). In vitro priming of specific multimer+CD8+ lymphocytes was detected by comparing to negative control stimulations.
Exemplary flow cytometry results after TUMAP-specific multimer staining for 2 peptides of the invention are shown in FIGS. 3A-3B together with corresponding negative controls. Results for 5 peptides from the invention are summarized in Table12A. Exemplary flow cytometry results after TUMAP-specific multimer staining for 7 peptides of the invention are shown in FIGS. 4A-4C and FIGS. 5A-5D together with corresponding negative controls.

A further assay concerns HLA-A*24. Briefly: MHC binding assay, UV-ligand exchange with beta2m ELISA, HLA-A*24. More on the design: species or system human. Particulars: binding to HLA-A*24 ranged by peptide exchange yield (UV-ligand exchange, beta2m ELISA). The method, boiled down:
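Peptide–MHC complexes made by UV-ligand exchange of a UV-cleavable peptide. Exchange yield measured by ELISA: monomers diluted 100-fold on streptavidin-coated plates, 1 h at 37°C, detected with HRP anti-β2m (2 ug/ml) and TMB, absorbance at 450 nm.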
On the technique in general: An ELISA detects its analyte on a solid surface through an enzyme-linked reagent.

In the next assay the target is HLA-A*02 (Homo sapiens, UniProt P04439, D140Y/D185E/D98H/E176V/E277Q/G131W/G231S/I119V/I121R/I166T/I218V/L300P/N151K/N90K/P208A/P217A/Q86G/Q94H/R138H/R169H). As to the kind of experiment: MHC binding assay, UV-ligand exchange with beta2m ELISA, HLA-A*02. The note with it: binding to HLA-A*02 ranged by peptide exchange yield (UV-ligand exchange, beta2m ELISA). From the text: Candidate peptides for T cell based therapies according to the present invention were further tested for their MHC binding capacity (affinity). The individual peptide-MHC complexes were produced by UV-ligand exchange, where a UV-sensitive peptide is cleaved upon UV-irradiation, and exchanged with the peptide of interest as analyzed. Only peptide candidates that can effectively bind and stabilize the peptide-receptive MHC molecules prevent dissociation of the MHC complexes. To determine the yield of the exchange reaction, an ELISA was performed based on the detection of the light chain (ß2 m) of stabilized MHC complexes. The assay was performed as generally described in Rodenko et al. (Rodenko et al., 2006).
96 well MAXISorp plates (NUNC) were coated over night with 2 ug/ml streptavidin in PBS at room temperature, washed 4× and blocked for 1 h at 37° C. in 2% BSA containing blocking buffer. […] Peptide-MHC monomers of the UV-exchange reaction were diluted 100 fold in blocking buffer. Samples were incubated for 1 h at 37° C., washed four times, incubated with 2 ug/ml HRP conjugated anti-β2 m for 1h at 37° C., washed again and detected with TMB solution that is stopped with […]. Absorption was measured at 450 nm. Candidate peptides that show a high exchange yield (preferably higher than 50%, most preferred higher than 75%) are generally preferred for a generation and production of antibodies or fragments thereof, and/or T cell receptors or fragments thereof, as they show sufficient avidity to the MHC molecules and prevent dissociation of the MHC complexes.

With “111 (VYVQILQKL; listed as Homo sapiens) [compound 111]”, the “Wells positive [%]” value in the assay with CD8+ T cells is “+ (<20% = +)”. Also, the Peptide exchange result in the assay on HLA-A*24 is given as “+++ (50%-75% = +++)”.

On to “380 (VYTGIDHHW; listed as Homo sapiens) [compound 380]”, for which the “Wells positive [%]” value in the assay with CD8+ T cells was “+ (<20% = +)”. For the same substance, the Peptide exchange entry with HLA-A*24 is reported as “++++ (>=75% = ++++)”.

Turning to “363 (SYAELGTTI; listed as Homo sapiens) [compound 363]”, in the assay with CD8+ T cells, the “Wells positive [%]” value was “+ (<20% = +)”. The Peptide exchange entry in the assay with HLA-A*24 was “++ (20%-49% = ++)”.

Turning to “161 (KYPDIVQQF; listed as Homo sapiens) [compound 161]”, the “Wells positive [%]” value in the assay with CD8+ T cells is “+ (<20% = +)”. Moreover, the Peptide exchange entry in the assay on HLA-A*24 is reported as “+++ (50%-75% = +++)”.

In the case of “174 (VYEKNGYIYF; listed as Homo sapiens) [compound 174]”, the “Wells positive [%]” value in the assay with CD8+ T cells is listed as “++++ (>=70% = ++++)”. In the assay on HLA-A*24, the Peptide exchange entry is given as “+++ (50%-75% = +++)”.

As for “407 (VYGIRLEHF; listed as Homo sapiens) [compound 407]”, in the assay on CD8+ T cells (share of positive wells after stimulation of CD8+ T cells of healthy donors), the wells result is given as “+++ (50%-69%= +++)”.

Regarding “142 (VYVDDIYVI; listed as Homo sapiens) [compound 142]”, the “Wells positive [%]” value in the assay with CD8+ T cells is on record as “++++ (>=70% = ++++)”. Also, in the assay on HLA-A*24, the Peptide exchange entry was “+++ (50%-75% = +++)”.

Consider “103 (NYIPVKNGKQF; listed as Homo sapiens) [compound 103]”, for which the “Wells positive [%]” value with CD8+ T cells is “+ (<20% = +)”. Besides, the Peptide exchange result with HLA-A*24 is recorded as “+++ (50%-75% = +++)”.

Take “105 (IYNETITDLL; listed as Homo sapiens) [compound 105]”: the “Wells positive [%]” value in the assay with CD8+ T cells is “+ (<20% = +)”. The Peptide exchange result in the assay on HLA-A*24 is listed as “+++ (50%-75% = +++)”.

For “164 (HYVPATKVF; listed as Homo sapiens) [compound 164]”, the “Wells positive [%]” value in the assay on CD8+ T cells was “+ (<20% = +)”. Further, in the assay on HLA-A*24, the Peptide exchange entry was “+++ (50%-75% = +++)”.

In the case of “354 (VYNEQIRDLL; listed as Homo sapiens) [compound 354]”, in the assay with CD8+ T cells, the “Wells positive [%]” value is on record as “+ (<20% = +)”. In the assay with HLA-A*24, the Peptide exchange result is “+++ (50%-75% = +++)”.

Turning to “180 (KYLQVVGMF; listed as Homo sapiens) [compound 180]”, the “Wells positive [%]” value in the assay with CD8+ T cells was “+ (<20% = +)”. The Peptide exchange entry in the assay on HLA-A*24 is “+++ (50%-75% = +++)”.

As for “358 (YYSEVPVKL; listed as Homo sapiens) [compound 358]”, in the assay with CD8+ T cells, the “Wells positive [%]” value is “++++ (>=70% = ++++)”. Moreover, the Peptide exchange entry with HLA-A*24 was “+++ (50%-75% = +++)”.

As for “132 (RYPALFPVL; listed as Homo sapiens) [compound 132]”, the “Wells positive [%]” value with CD8+ T cells is “+ (<20% = +)”. Also, the Peptide exchange entry in the assay on HLA-A*24 is on record as “++++ (>=75% = ++++)”.

As to “353 (TYGKIDLGF; listed as Homo sapiens) [compound 353]”, the “Wells positive [%]” value in the assay on CD8+ T cells was “+ (<20% = +)”. Besides, the Peptide exchange entry in the assay on HLA-A*24 is given as “+++ (50%-75% = +++)”.

Consider “98 (VFPRLHNVLF; listed as Homo sapiens) [compound 98]”, for which the “Wells positive [%]” value in the assay with CD8+ T cells is “+ (<20% = +)”. In addition, the Peptide exchange entry in the assay on HLA-A*24 was “+++ (50%-75% = +++)”.

For the substance “137 (EYLHNCSYF; listed as Homo sapiens) [compound 137]”, in the assay on CD8+ T cells, the “Wells positive [%]” value is “+ (<20% = +)”. Also, the Peptide exchange result in the assay with HLA-A*24 is “++++ (>=75% = ++++)”.

On to “175 (LYSPVPFTL; listed as Homo sapiens) [compound 175]”, for which, in the assay with CD8+ T cells, the “Wells positive [%]” value is on record as “+ (<20% = +)”. In the assay with HLA-A*24, the Peptide exchange entry is on record as “+++ (50%-75% = +++)”.

For the substance “38 (KMQEDLVTL; listed as Homo sapiens) [compound 38]”, the Peptide exchange entry with HLA-A*02 was “+++ (50%-75% = +++)”.

For the substance “61 (HLPDFVKQL; listed as Homo sapiens) [compound 61]”, in the assay with HLA-A*02, the Peptide exchange entry is “++ (20%-49% = ++)”.

On to “57 (VLISSTVRL; listed as Homo sapiens) [compound 57]”, for which the Peptide exchange entry with HLA-A*02 is reported as “++ (20%-49% = ++)”.

Take “21 (SLYHRVLLY; listed as Homo sapiens) [compound 21]”: the Peptide exchange result with HLA-A*02 is “++++ (>=75% = ++++)”.

As for “63 (TLSSERDFAL; listed as Homo sapiens) [compound 63]”, the Peptide exchange result with HLA-A*02 is reported as “+ (<20% = +)”.

For “37 (ALINDILGELVKL; listed as Homo sapiens) [compound 37]”, in the assay with HLA-A*02, the Peptide exchange entry is “+++ (50%-75% = +++)”.

Consider “32 (ILADEAFFSV; listed as Homo sapiens) [compound 32]”, for which the Peptide exchange result with HLA-A*02 is given as “+++ (50%-75% = +++)”.

Consider “56 (KILDLTRVL; listed as Homo sapiens) [compound 56]”, for which, in the assay with HLA-A*02, the Peptide exchange entry is “++ (20%-49% = ++)”.

As to “23 (AQTVVVIKA; listed as Homo sapiens) [compound 23]”, the Peptide exchange entry in the assay with HLA-A*02 was “+ (<20% = +)”.

“59 (ALTKILAEL; listed as Homo sapiens) [compound 59]”: in the assay with HLA-A*02, the Peptide exchange result is “+++ (50%-75% = +++)”.

Take “4 (ELAEIVFKV; listed as Homo sapiens) [compound 4]”: the Peptide exchange result with HLA-A*02 was “+++ (50%-75% = +++)”.

For the substance “48 (TLDHKPVTV; listed as Homo sapiens) [compound 48]”, the Peptide exchange entry in the assay with HLA-A*02 is on record as “++ (20%-49% = ++)”.

For the substance “19 (TLLPTVLTL; listed as Homo sapiens) [compound 19]”, the Peptide exchange entry in the assay with HLA-A*02 was “+++ (50%-75% = +++)”.

With “323 (ILSVVNSQL; listed as Homo sapiens) [compound 323]”, in the assay with HLA-A*02, the Peptide exchange result was “+++ (50%-75% = +++)”.

For “54 (FINPKGNWLL; listed as Homo sapiens) [compound 54]”, in the assay with HLA-A*02, the Peptide exchange entry is reported as “+++ (50%-75% = +++)”.

As to “27 (KVFGDLDQV; listed as Homo sapiens) [compound 27]”, in the assay with HLA-A*02, the Peptide exchange entry is given as “+++ (50%-75% = +++)”.

Regarding “6 (FLDPAQRDL; listed as Homo sapiens) [compound 6]”, in the assay with HLA-A*02, the Peptide exchange result was “+++ (50%-75% = +++)”.

As to “52 (ELLSSIFFL; listed as Homo sapiens) [compound 52]”, in the assay with HLA-A*02, the Peptide exchange result is reported as “+++ (50%-75% = +++)”.
